# Measurements from patent publication US20230390268A1 (priority 2022, published 2023).
# “Also recorded” adds a separate entry of the source. Where two headings read alike, the source gives them in different places.
# Legend:
# SARS-CoV-2 [1] = format: cell-based
# IL6 = IL6 transcript levels by qPCR in SARS-CoV-2 infected Calu3 cells; format: cell-based, human; conditions: Calu3 cells infected with SARS-CoV-2
# TNFα = TNFα transcript levels by qPCR in SARS-CoV-2 infected Calu3 cells; format: cell-based, human; conditions: Calu3 cells infected with SARS-CoV-2
# IL8 = IL8 transcript levels by qPCR in SARS-CoV-2 infected Calu3 cells; format: cell-based, human; conditions: Calu3 cells infected with SARS-CoV-2
# [2] = tested on: Vesicular stomatitis virus (VSV); format: cell-based
# [3] = tested on: Herpes Simplex Virus (HSV); format: cell-based
# Vaccinia virus (VacV) = format: cell-based
# HIV-1 NL4-3 GFP = format: cell-based
# ASK1/p38MAPK = format: cell-based, human
# THF cells = experiment: Cell viability MTT assay; conditions: 50 μM, 24 hr, compared with DMSO
# Calu3 cells = format: cell-based, human; conditions: 1 MOI of VSV, Selonsertib 50 μM, 24 hr
# JNK = format: cell-based, human
# mTORC1 = format: cell-based, human; conditions: Calu3 and THF cells infected with VSV, Selonsertib 50 μM, 24 hr, versus DMSO+VSV
# autophagy = format: cell-based, human; conditions: Calu3 and THF cells infected with VSV, Selonsertib 50 μM, 24 hr
# SARS-CoV-2 [4] = format: cell-based; remark: listed apart in the source
# VSV [5] = format: cell-based
# SARS-CoV-2 [6] = format: cell-based; remark: listed apart in the source
# SARS-CoV-2/SB3 = tested on: SARS-CoV-2/SB3; set-up: species or system Syrian Hamster; conditions: in vivo
# VSV [7] = format: cell-based; remark: listed apart in the source
# HSV = experiment: HSV-GFP replication in CHL-11 hamster cell line; format: cell-based; conditions: CHL-11 cells, HSV-GFP MOI of 1, 0.1 or 0.01, Selonsertib 25 or 50 μM, 24 h
SMILES,SARS-CoV-2 replication (SARS-CoV-2 [1]),levels of IL6 (IL6),levels of TNFα (TNFα),levels of IL8 (IL8),VSV replication [2],GFP-intensity of VSV [2],duration of effect on viral replication after aspirating drugs [2] [h],GFP-intensity of HSV [3],GFP-intensity of VacV (Vaccinia virus (VacV)),HIV-1-GFP replication (HIV-1 NL4-3 GFP),cell viability (THF cells),also measured
"Cc1ccc(-n2nc(C(C)(C)C)cc2NC(=O)Nc2ccc(OCCN3CCOCC3)c3ccccc23)cc1 [BIRB, Doramapimod]",no antiviral properties,diminish,diminish,diminish,no obvious effect; also recorded: no noticeable effect,–,–,–,–,–,–,–
O=C(Nc1cccc(-c2nncn2C2CC2)c1)c1cc(-n2cnc(C3CC3)c2)ccn1 [GS-444217],drastically reduces,diminish,diminish,diminish,–,significantly abolish,24,significantly abolish,significantly abolish,abrogates replication,healthy and safe; also recorded: no difference,"duration of effect on phosphorylation of ASK1/p38MAPK after aspirating drugs (ASK1/p38MAPK; pretreatment 24 hours, drugs aspirated prior VSV infection, Calu3 cells): 24 h"
Cc1cc(F)c(C(=O)Nc2cccc(-c3nncn3C(C)C)n2)cc1-n1cnc(C2CC2)c1 [Selonsertib],drastically reduces,diminish,diminish,diminish,gradually decreased,significantly abolish,24,significantly abolish,significantly abolish,abrogates replication,healthy and safe; also recorded: no difference,"time after adding drug at which VSV replication starts to weaken [2]: 2 h; duration of effect on phosphorylation of ASK1/p38MAPK after aspirating drugs (ASK1/p38MAPK): 24 h; time after adding drug at which p38MAPK phosphorylation starts to weaken (ASK1/p38MAPK): 2 h; changes in cell morphology caused by VSV replication (Calu3 cells): remarkably alleviates; also recorded: relieved; JNK phosphorylation (JNK): reduced; Phosphorylation levels of p70 (S6K1) (mTORC1): not changed; autophagy marker, LC3II (autophagy): not affected; SARS-CoV-2 nucleoprotein in infected HAP1 KO cells treated or not (SARS-CoV-2 [4]): no significant difference; VSV infection in HAP1 KO cells (VSV [5]): still able to swipe the leftover of VSV infection; level of SARS-CoV2 nucleocapsid (SARS-CoV-2 [6]): remarkably increased; percentage of weight loss (SARS-CoV-2/SB3; hamster): the most; IHC staining against SARS-CoV2 nucleocapsid in the hamster lung tissue (SARS-CoV-2/SB3): dominated a spatial area of the lung tissue; SARS-CoV-2 replication in hamster tissue (SARS-CoV-2/SB3): augmented; antiviral effect against VSV in hamster cell line (VSV [7]): antiviral properties; antiviral effect against HSV in hamster cell line (HSV): antiviral properties"
